Three compounds from patent US20260335327A1, “IDH MUTATIONS AS BIOMARKERS FOR ZOTIRACICLIB THERAPY” (Cothera Bioscience, Inc., priority 2022, published 2026) can be followed below.

Structures are written as SMILES.

Holding throughout (assay type): cell-based, Human
For experiment [1], the system named is mutant IDH1 (HT-1080) cells. Nature of the experiment: Neutral comet assay (DNA damage), HT-1080 cells. Conditions: for rescue of TG02-induced DNA damage: exogenous α-KG or AG-120 with TG02, 48 h. As to the method:
(§1) Cell Culture. Human Chondrosarcoma cell line HT-1080 was cultured in MEM (Gibco, USA) supplemented with 10% fetal bovine serum (FBS, Gemini, USA). Human cholangiocarcinoma cell lines RBE, Hccc-9810, and Hucct-1 were cultured in RPMI1640 (Hyclone, USA) supplemented with 10% FBS. Cells were incubated at 37 °C in 5% CO2.
Comet assay. The comet assay is common technique for measurement of DNA damage in individual cells. Under an electrophoretic field, damaged cellular DNA (containing fragments and strand breaks) is separated from intact DNA, yielding a classic “comet tail” shape under the microscope. DNA damage was assayed by OxiSelect™ Comet Assay Kit (CELL BIOLABS, INC.) according to the manufacturer's instructions. Briefly, comet agarose was pipetted onto the OxiSelect™ Comet Slide to form a base layer. Cells were combined with OxiSelect™ Comet agarose at 37 °C, then the agarose/cell mixture was pipetted onto the top of the base layer. Cells were treated with lysis buffer and alkaline solution. Electrophoresis was performed under neutral conditions. The slides were viewed by epifluorescence microscopy using a FITC filter.
Tail Moment=(100×Tail DNA Intensity/Cell DNA Intensity)×Tail Moment Length

In experiment [2] the test system is mutant IDH1 cells (Hccc-9810). The experiment is described as follows: Western blot of pH2AX (marker of DNA damage), Hccc-9810 cells. Conditions: exogenous AG-120 with TG02, 48 h; WB; FIG. 6. As to the method: as §1
(§2) Western blot. Hccc-9810 and Hucct-1 cells treated with TG02 or AG120 as indicated for 48 h (0.1% DMSO was added as control) were harvested and centrifuged at 500 g for 5 minutes to obtain cell pellets. Then the pellets were lysed in lysis buffer (Beyotime, China) which additionally included a protease inhibitor cocktail (Beyotime, China) and phosphatase inhibitor cocktail (Beyotime, China). Cells were incubated on ice for 30 minutes and then centrifuged at 4 °C, 12000 rpm for 10 minutes to obtain the supernatant as cell lysate. The concentrations of protein in cell lysate were determined by Micro BCA™ Protein Assay Kit (ThermoFisher, USA). 4×SDS-PAGE Sample Loading Buffer (SolarBio, China) was added into cell lysate contained 25 μg of total protein and, after boiling, the mixture was electrophoresed in polyacrylamide gel. After electrophoresis, proteins on the gel were transferred to PVDF membrane, and the membrane was cut at position close to the molecular weights of proteins whose expression was examined (pH2AX (CST, USA), GAPDH (ZSGB-BIO, China)).

For the next experiment, the system named is mutant IDH1 cancer cells. Nature of the experiment: Overall conclusion on DNA damage and cell-killing in mutant IDH1 versus homozygous wild-type IDH1 cancer cells. As to conditions: mutant IDH1 relative to homozygous wild-type IDH1 cancer cells. The method, then:
(§3) Apoptosis Assay. HT-1080, RBE, Hccc-9810, and Hucct-1 cells were treated with the indicated drugs. Apoptosis was detected by Annexin V/PI staining kit (Thermo Fisher) according to the manufacturer's instructions. Briefly, cells were plated at a density of 1× 10^5 cells/well in media with 10% FBS with desired concentrations of TG02. At 48/72-hour post-treatment the cells were harvested and tested for apoptosis by Annexin V and PI staining. Cell analysis was performed using a FACSCelesta (BD).
(§4) Comet assay. The comet assay is common technique for measurement of DNA damage in individual cells. Under an electrophoretic field, damaged cellular DNA (containing fragments and strand breaks) is separated from intact DNA, yielding a classic “comet tail” shape under the microscope. DNA damage was assayed by OxiSelect™ Comet Assay Kit (CELL BIOLABS, INC.) according to the manufacturer's instructions. Briefly, comet agarose was pipetted onto the OxiSelect™ Comet Slide to form a base layer. Cells were combined with OxiSelect™ Comet agarose at 37 °C, then the agarose/cell mixture was pipetted onto the top of the base layer. Cells were treated with lysis buffer and alkaline solution. Electrophoresis was performed under neutral conditions. […]
Western blot. […] The concentrations of protein in cell lysate were determined by Micro BCA™ Protein Assay Kit (ThermoFisher, USA). […]

For a further experiment, the system named is RBE. Nature of the experiment: Apoptosis assay (Annexin V/PI staining, FACS), RBE cells. Conditions: 0.2 μM TG02; IDH1-mutant cholangiocarcinoma RBE; compared with IDH1-WT (Hucct-1); FIGS. 2A-2B. As to the method:
as §1, §3

Another experiment has as its system HT-1080. Nature of the experiment: Apoptosis assay (Annexin V/PI staining, FACS), HT-1080 cells. Conditions: 0.2 μM TG02; IDH1-mutant chondrosarcoma HT-1080; compared with IDH1-WT (Hucct-1); FIGS. 2A-2B. The method, then:
as §1, §3

The next experiment relates to Hccc-9810. Nature of the experiment: Apoptosis assay (Annexin V/PI staining, FACS), Hccc-9810 cells. As to the method: as §1, §3
The test system of experiment [3] is Hucct-1 cells transfected with IDH1 R132H plasmid. The experiment is described as follows: Apoptosis assay (FACS), Hucct-1 cells transfected with IDH1 R132H plasmid. Conditions: 0.1 μM TG02, 72 h; Hucct-1 transfected with IDH1 R132H; FIG. 3A. As to the method: as §1, §3
Transfection. The day before transfection, cells (~2×10^5/well) were seeded in a 6-well plate. The cells were cultured in a 37 °C in 5% CO2 incubator overnight. The old medium was removed and 2 ml of transfection medium was added. 50 μl opti-MEM was added to a tube, and then 2 μg plasmid DNA Mix solution was mixed by vortexing. 4 μl PEI solution was added to this tube, and the solution was mixed by gently pipetting up and down. The samples were incubated at room temperature for 15 min to allow the PEI/DNA complexes to form. […]

A further experiment has as its system Hucct1R132H/+ cells. The experiment is described as follows: Western blot of phosphorylated γH2AX (marker of DSBs), Hucct1^R132H/+ cells. Conditions: 0.2 μM TG02, 16 h, FIG. 7B. As to the method: as §2, with “Hccc-9810 and Hucct-1 cells treated with TG02 or AG120 as indicated for 48 h (0.1% DMSO was added as control) were harvested and centrifuged at 500 g for 5 minutes to obtain cell pellets.” left out
In FIG. 7A, IDH1-mutant Hucct1 cells (Hucct1^R132H/+) were generated by lentivirus expressing IDH1 R132H. Hucct1, Hucct1^R132H/+ and HT-1080 cells were treated with 0.2 μM TG02 or 0.1% DMSO for 48 h. Cells were used to comet assays. Quantification of Tail moment in neutral comet assay is presented. ns: no significant differences; ***: P<0.001, ****: P<0.0001, compared with NC; #: P<0.05, compared with Hucct1 cells treated with TG02. […]
(In general: A western blot detects proteins with antibodies after separation by electrophoresis.)

A further experiment concerns Hucct1^R132H/+ cells. Nature of the experiment: Neutral comet assay (Tail moment), Hucct1^R132H/+ cells. As to conditions: 0.2 μM TG02, 48 h, compared with Hucct1 treated with TG02, FIG. 7A. The method, then:
as §1, §4
In FIG. 7A, IDH1-mutant Hucct1 cells (Hucct1^R132H/+) were generated by lentivirus expressing IDH1 R132H. […] Quantification of Tail moment in neutral comet assay is presented. ns: no significant differences; ***: P<0.001, ****: P<0.0001, compared with NC; #: P<0.05, compared with Hucct1 cells treated with TG02. […]

[4] abbreviates: neutral comet assay, FIGS. 5A-5B.

In the case of `N#Cc1ccnc(N2C(=O)CC[C@H]2C(=O)N(c2cncc(F)c2)[C@H](C(=O)NC2CC(F)(F)C2)c2ccccc2Cl)c1` [AG-120, ivosidenib], in [1] (setting [4]), the “rescue of TG02-induced DNA damage” value is “can be rescued by addition of exogenous α-KG or AG-120”. For the same compound, the “rescue of TG02-induced DNA damage (pH2AX)” value in experiment [2] was “TG02-induced DNA damage was rescued only in mutant IDH1 cells (Hccc-9810)”.

As to `CN1C/C=C/CCOc2cccc(c2)-c2ccnc(n2)Nc2cccc(c2)C1` [TG02, (16E)-14-methyl-20-oxa-5,7,14,27-tetraazatetracyclo[19.3.1.1^2,6. 1^8,12]heptacosa-1(25),2(27),3,5,8,10,12(26),16,21,23-decaene], the “selective DNA damage” value in the experiment with mutant IDH1 cancer cells is “selectively induces DNA damage and cell-killing in mutant IDH1 cancer cells relative to homozygous wild-type IDH1 cancer cells”. The selective cell-killing result in the experiment on mutant IDH1 cancer cells was “selectively induces DNA damage and cell-killing in mutant IDH1 cancer cells relative to homozygous wild-type IDH1 cancer cells”. For the same compound, the “sensitivity to TG02 (apoptosis)” value is “more sensitive to TG02 than IDH1-WT (Hucct-1) cells” in the experiment with RBE; “more sensitive to TG02 than IDH1-WT (Hucct-1) cells” in the experiment on HT-1080; “more sensitive to TG02 than IDH1-WT (Hucct-1) cells” with Hccc-9810 (0.2 μM TG02, IDH1-mutant cholangiocarcinoma Hccc-9810 (printed Hcc-9810), compared with IDH1-WT (Hucct-1), FIGS. 2A-2B). For the same compound, the “sensitivity to DNA damage induced by TG02 (Tail moment)” value in experiment [1] (0.2 μM TG02, 48 h, HT-1080, compared with Hucct1 treated with TG02, FIG. 7A) was “cells with IDH1 mutation are more sensitive to DNA damage induced by TG02”; in the experiment on Hucct1^R132H/+ cells, “cells with IDH1 mutation are more sensitive to DNA damage induced by TG02”. For the same compound, the “TG02-induced DNA damage” value in experiment [1] (48 h, neutral comet assay, FIGS. 5A-5B) is recorded as “TG02-induced DNA damage in mutant IDH1 (HT-1080) cells”. Further, the TG02-induced apoptosis result with Hccc-9810 (TG02 for 72 h, without exogenous α-KG, FIG. 4) is “TG02-induced apoptosis of mutant IDH1 (Hccc-9810) cells”. The “TG02 sensitivity (apoptosis)” value in experiment [3] is listed as “increased TG02 sensitivity can be conferred onto IDH1-WT (Hucct-1) cells by transfection of mutated IDH1”. For the same compound, the “sensitivity to DNA damage induced by TG02 (phosphorylated γH2AX)” value with Hucct1R132H/+ cells was “cells with IDH1 mutation are more sensitive to DNA damage induced by TG02”.

Consider `O=C(O)CCC(=O)C(=O)O` [α-KG, α-ketoglutarate], for which the “rescue of TG02-induced DNA damage” value in experiment [1] (setting [4]) is “can be rescued by addition of exogenous α-KG or AG-120”. The “rescue of TG02-induced apoptosis” value in the experiment with Hccc-9810 (α-KG pretreatment 24 h, then TG02 for 72 h, FIG. 4) is on record as “can be rescued by addition of exogenous substrate α-ketoglutarate (α-KG)”.
